Test [1] relates to HCT-116. The test is described as follows: Induction of apoptosis in human HCT116 cells assessed as caspase activation by HTS assay. The format is functional, cell-based.
For test [2], the system named is SNU-398. The test is described as follows: Induction of apoptosis in human SNU398 cells assessed as caspase activation by HTS assay. Type of test: functional, cell-based.
Test [3] deals with T47D. The test is described as follows: Induction of apoptosis in human T47D cells assessed as caspase activation by HTS assay. The format is functional, cell-based.
Test [4] relates to SNU-398. The experiment in a line: Cytotoxicity against human SNU398 cells. Type of test: functional.
The subject of test [5] is HCT-116. The test is described as follows: Cytotoxicity against human HCT116 cells. The format is functional.
The subject of test [6] is T47D. The experiment in a line: Cytotoxicity against human T47D cells. Type of test: functional.
The subject of test [7] is HCT-116. The test is described as follows: Cell cycle arrest in human HCT116 cells assessed as increase in subG1 phase population at 100 nM after 24 hrs by flow cytometry. Type of test: functional. On the technique in general: In flow cytometry, cells or beads pass a laser one at a time.
For test [8], the system named is HCT-116. The experiment in a line: Cell cycle arrest in human HCT116 cells assessed as increase in subG1 phase population at 100 nM after 48 hrs by flow cytometry. The format is functional.
In test [9] the test system is HCT-116. The experiment in a line: Cell cycle arrest in human HCT116 cells assessed as increase in G2/M phase population at 100 nM after 24 hrs by flow cytometry. Type of test: functional.

SMILES strings stand for the structures.

This note sets out measurements from ChEMBL document CHEMBL1143443, “Discovery of (naphthalen-4-yl)(phenyl)methanones and N-methyl-N-phenylnaphthalen-1-amines as new apoptosis inducers using a cell- and caspase-based HTS assay” (Bioorg Med Chem Lett, 2008).

A word on the EC50: it is the concentration that produces a half-maximal response. With `COc1ccc(N(C)c2ccc(N)c3ccccc23)cc1`, the figures for the EC50 in the test with HCT-116 [1], in the test with SNU-398 [2] and with T47D [3] were 11000 nM, 5300 nM and 12000 nM, respectively.
On the same counts, the results for `COc1cc(C(=O)c2ccc(N(C)C)c3ccccc23)cc(OC)c1OC` are 1200 nM, 570 nM and 420 nM.
As usually defined, the GI50 is the concentration giving 50% growth inhibition. Low readings indicate greater sensitivity of the cells, high ones lower sensitivity of the cells. `COc1ccc(C(=O)c2ccc(N(C)C)c3ccccc23)cc1`: the results for the EC50 with HCT-116 [1], in the test on SNU-398 [2] and in the test with T47D [3] were 86 nM, 74 nM and 72 nM, respectively. For the same molecule, the GI50 with SNU-398 [4] was 27 nM; in the test on HCT-116 [5], 100 nM; in the test on T47D [6], 39 nM.
For the molecule `COc1ccc(C(=O)c2ccc(N(C)C)cc2)c2ccccc12`, the figures for the EC50 in the test with HCT-116 [1], with SNU-398 [2] and in the test on T47D [3] were 1200 nM, 980 nM and 810 nM, respectively.
In the case of `COc1ccc(N(C)c2ccc(N(C)C)c3ccccc23)cc1`, the concentration for a half-maximal effect (EC50) in the test on HCT-116 [1] came to 610 nM; in the test on SNU-398 [2], 720 nM; in the test with T47D [3], 510 nM. Further, the GI50 amounted to 150 nM in the test on SNU-398 [4], 320 nM with HCT-116 [5] and 260 nM in the test on T47D [6].
On to `COc1ccc(C(OC)c2ccc(N(C)C)c3ccccc23)cc1` (stereo not given), for which the results for the EC50 in the test with HCT-116 [1], with SNU-398 [2] and in the test with T47D [3] were 620 nM, 760 nM and 590 nM, respectively.
In the case of `COc1ccc(C(=O)c2ccc(N(C)C)c3ccccc23)cc1OC`, the EC50 amounted to 650 nM in the test on HCT-116 [1], 560 nM with SNU-398 [2] and 470 nM in the test on T47D [3].
Consider `COc1ccc(C(=O)c2ccc([N+](=O)[O-])cc2)c2ccccc12`, for which the EC50 in the test on HCT-116 [1], with SNU-398 [2] and with T47D [3] was over 10000 nM throughout.
Turning to `COc1cccc(N(C)c2ccc(N(C)C)c3ccccc23)c1`, the figures for the EC50 with HCT-116 [1], in the test with SNU-398 [2] and in the test on T47D [3] were 4600 nM, 4700 nM and 4400 nM, respectively.
In the same order, the values of `COc1cc(OC)cc(C(=O)c2ccc(N(C)C)c3ccccc23)c1` are 1900 nM, 1500 nM and 1300 nM.
As for `COc1ccc(N(C)c2ccc([N+](=O)[O-])c3ccccc23)cc1`, the figures for the EC50 with HCT-116 [1], in the test with SNU-398 [2] and in the test with T47D [3] were 280 nM, 330 nM and 240 nM, respectively.
For the molecule `CN(C)c1ccc(C(=O)c2ccc(N(C)C)c3ccccc23)cc1`, the EC50 was determined as 49 nM in the test with HCT-116 [1], 44 nM with SNU-398 [2] and 37 nM in the test with T47D [3]. Further, the Activity in the test on HCT-116 [7] stood at 4%; with HCT-116 [8], 53%; in the test on HCT-116 [9], 12%. Moreover, the figures for the GI50 in the test on SNU-398 [4], in the test on HCT-116 [5] and in the test with T47D [6] were 27 nM, 68 nM and 34 nM, respectively.
`CN(C)c1ccc(C(O)c2ccc(N(C)C)c3ccccc23)cc1` (stereo not given): the results for the EC50 with HCT-116 [1], in the test on SNU-398 [2] and in the test with T47D [3] were 490 nM, 520 nM and 380 nM, respectively.
Consider `COc1ccc(C(O)c2ccc(N(C)C)c3ccccc23)cc1` (stereo not given), for which the EC50 in the test with HCT-116 [1] amounted to 260 nM; in the test on SNU-398 [2], 170 nM; with T47D [3] it was 140 nM. Further, the figures for the GI50 in the test with SNU-398 [4], in the test with HCT-116 [5] and in the test on T47D [6] were 170 nM, 490 nM and 230 nM, respectively.
In the case of `COc1cccc(C(=O)c2ccc(N(C)C)c3ccccc23)c1`, the EC50 worked out at 5100 nM with HCT-116 [1], 3500 nM with SNU-398 [2] and 2600 nM in the test on T47D [3].
